Values quoted from earlier work in US20220218740A1, “OPIOID-FREE COMPOSITIONS FOR ANESTHESIOLOGICAL APPLICATIONS AND RELATED METHODS AND SYSTEMS” (Vaporworks Nursing Anesthesia Inc., priority 2020, published 2022).
Read-outs that look alike come from different tables or passages of the source. Values belong to the compound of their own block, whether it stands above or below them.

Columns and labels:
[1] = infusion continued post-surgically
[2] = not given; remark: listed apart in the source

Structure (SMILES): C[C@@H]1C[C@H]2[C@@H]3CCC4=CC(=O)C=C[C@]4(C)[C@@]3(F)[C@@H](O)C[C@]2(C)[C@@]1(O)C(=O)COP(=O)(O)O [Dexamethasone, Dexamethasone Sodium phosphate]
onset time (in vivo): two
time until peak effect (in vivo): at least 1 hour

Structure (SMILES): Cc1cccc([C@H](C)c2cnc[nH]2)c1C [Dexmedetomidine]
peek effect (IV): 15 min

Structure (SMILES): CCN(CC)CC(=O)Nc1c(C)cccc1C [Lidocaine]
Peak serum levels occur after medication administration [1]: serum levels occur 24 hours

The remaining lines, values ahead:

Duration ([2]; in vivo): > 20 min
Peak ([2]; in vivo): 2 to 6 min
Onset ([2]; in words): Immediate
Structure (SMILES): COC(=O)CCc1ccc(OCC(O)CNC(C)C)cc1 (stereo not shown) [esmolol]

Duration ([2]; in vivo): up to 4 hours
Onset ([2]; in vivo): 2 to 5 min
Peak ([2]; in vivo): 5 to 15 min
Structure (SMILES): CC(CCc1ccccc1)NCC(O)c1ccc(O)c(C(N)=O)c1 (stereo not shown) [labetalol]
